In ChEMBL document CHEMBL1914418, “Biochemical and pharmacological profiling of the pro-survival protein Bcl-xL” (Bioorg Med Chem Lett, 2011):
pKd, pKi: −log10 of the molar value.

How the values were obtained:
[1] = target: Bcl-2-like protein 1 (Homo sapiens, UniProt Q07817, L130A); test: Displacement of BODIPY-Bak conjugated peptide from GST-tagged human Bcl-2-like protein 1 L130A mutant expressed in Escherichia coli BL21 cells at 40 uM after 3 hrs by fluorescence polarization competition assay
[2] = target: Bcl-2-like protein 1 (Homo sapiens, UniProt Q07817, R100E); test: Displacement of BODIPY-Bak conjugated peptide from GST-tagged human Bcl-2-like protein 1 R100E mutant expressed in Escherichia coli BL21 cells at 40 uM after 3 hrs by fluorescence polarization competition assay
[3] = target: Bcl-2-like protein 1 (Homo sapiens, UniProt Q07817, V141A); test: Displacement of BODIPY-Bak conjugated peptide from GST-tagged human Bcl-2-like protein 1 V141A mutant expressed in Escherichia coli BL21 cells at 40 uM after 3 hrs by fluorescence polarization competition assay
[4] = target: Bcl-2-like protein 1 (Homo sapiens, UniProt Q07817, Y195F); test: Displacement of BODIPY-Bak conjugated peptide from GST-tagged human Bcl-2-like protein 1 Y195F mutant expressed in Escherichia coli BL21 cells at 40 uM after 3 hrs by fluorescence polarization competition assay
[5] = target: Bcl-2-like protein 1 (Homo sapiens, UniProt Q07817, G196A); test: Displacement of BODIPY-Bak conjugated peptide from GST-tagged human Bcl-2-like protein 1 G196A mutant expressed in Escherichia coli BL21 cells at 40 uM after 3 hrs by fluorescence polarization competition assay
[6] = target: Bcl-2-like protein 1 (Homo sapiens, UniProt Q07817, E96G); test: Displacement of BODIPY-Bak conjugated peptide from GST-tagged human Bcl-2-like protein 1 E96G mutant expressed in Escherichia coli BL21 cells at 40 uM after 3 hrs by fluorescence polarization competition assay
[7] = target: Bcl-2-like protein 1 (Homo sapiens, UniProt Q07817, Y101H); test: Displacement of BODIPY-Bak conjugated peptide from GST-tagged human Bcl-2-like protein 1 Y101H mutant expressed in Escherichia coli BL21 cells at 40 uM after 3 hrs by fluorescence polarization competition assay
[8] = target: Bcl-2-like protein 1 (Homo sapiens, UniProt Q07817, A142G); test: Displacement of BODIPY-Bak conjugated peptide from GST-tagged human Bcl-2-like protein 1 A142G mutant expressed in Escherichia coli BL21 cells at 40 uM after 3 hrs by fluorescence polarization competition assay
[9] = target: Bcl-2-like protein 1 (Homo sapiens, UniProt Q07817, A93V); test: Displacement of BODIPY-Bak conjugated peptide from GST-tagged human Bcl-2-like protein 1 A93V mutant expressed in Escherichia coli BL21 cells at 40 uM after 3 hrs by fluorescence polarization competition assay
[10] = target: Bcl-2-like protein 1 (Homo sapiens, UniProt Q07817, A142T); test: Displacement of BODIPY-Bak conjugated peptide from GST-tagged human Bcl-2-like protein 1 A142T mutant expressed in Escherichia coli BL21 cells at 40 uM after 3 hrs by fluorescence polarization competition assay
[11] = target: T1, Bcl-2-like protein 1 (Homo sapiens, UniProt Q07817); test: Displacement of BODIPY-Bak conjugated peptide from GST-tagged human Wild type Bcl-2-like protein 1 expressed in Escherichia coli BL21 cells at 40 uM after 3 hrs by fluorescence polarization competition assay
[12] = target: T2, Bcl-2-like protein 1 (Homo sapiens, UniProt Q07817, L130V); test: Displacement of BODIPY-Bak conjugated peptide from GST-tagged human Bcl-2-like protein 1 L130V mutant expressed in Escherichia coli BL21 cells at 40 uM after 3 hrs by fluorescence polarization competition assay
[13] = target: T3, Bcl-2-like protein 1 (Homo sapiens, UniProt Q07817, L130G); test: Displacement of BODIPY-Bak conjugated peptide from GST-tagged human Bcl-2-like protein 1 L130G mutant expressed in Escherichia coli BL21 cells at 40 uM after 3 hrs by fluorescence polarization competition assay
[14] = target: Bcl-2-like protein 1 (Homo sapiens, UniProt Q07817, E129H); test: Displacement of BODIPY-Bak conjugated peptide from GST-tagged human Bcl-2-like protein 1 E129H mutant expressed in Escherichia coli BL21 cells at 40 uM after 3 hrs by fluorescence polarization competition assay
[15] = Displacement of BODIPY-Bak conjugated peptide from GST-tagged human Bcl-2-like protein 1 delta136T mutant expressed in Escherichia coli BL21 cells at 40 uM after 3 hrs by fluorescence polarization competition assay
[16] = target: Bcl-2-like protein 1 (Homo sapiens, UniProt Q07817, F97V); test: Displacement of BODIPY-Bak conjugated peptide from GST-tagged human Bcl-2-like protein 1 F97V mutant expressed in Escherichia coli BL21 cells at 40 uM after 3 hrs by fluorescence polarization competition assay
[17] = Displacement of BODIPY-Bak conjugated peptide from GST-tagged human Bcl-2-like protein 1 A142G, delta136T mutant expressed in Escherichia coli BL21 cells at 40 uM after 3 hrs by fluorescence polarization competition assay
[18] = target: T4, Bcl-2-like protein 2 (Homo sapiens, UniProt Q92843); test: Displacement of BODIPY-Bak conjugated peptide from GST-tagged human wild type Bcl-W expressed in Escherichia coli BL21 cells at 10 uM after 3 hrs by fluorescence polarization competition assay
T4 sequence (Q92843 whole entry): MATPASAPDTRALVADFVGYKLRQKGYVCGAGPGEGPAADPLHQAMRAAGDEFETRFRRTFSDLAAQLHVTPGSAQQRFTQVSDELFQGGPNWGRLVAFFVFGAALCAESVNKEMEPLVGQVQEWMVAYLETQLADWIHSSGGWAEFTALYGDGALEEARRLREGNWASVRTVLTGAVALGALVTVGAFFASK

[19] = target: T1, Bcl-2-like protein 1; test: Displacement of BODIPY-Bak conjugated peptide from GST-tagged human Wild type Bcl-2-like protein 1 expressed in Escherichia coli BL21 cells at 10 uM after 3 hrs by fluorescence polarization competition assay
[20] = target: T2, Bcl-2-like protein 1; test: Displacement of BODIPY-Bak conjugated peptide from GST-tagged human Bcl-2-like protein 1 L130V mutant expressed in Escherichia coli BL21 cells at 10 uM after 3 hrs by fluorescence polarization competition assay
[21] = target: T5, Induced myeloid leukemia cell differentiation protein Mcl-1 homolog (Mus musculus, UniProt P97287); test: Displacement of BODIPY-Bak conjugated peptide from GST-tagged mouse wild type MCL1 expressed in Escherichia coli BL21 cells at 10 uM after 3 hrs by fluorescence polarization competition assay
[22] = target: T3, Bcl-2-like protein 1; test: Displacement of BODIPY-Bak conjugated peptide from GST-tagged human Bcl-2-like protein 1 L130G mutant expressed in Escherichia coli BL21 cells at 10 uM after 3 hrs by fluorescence polarization competition assay
[23] = Displacement of BODIPY-Bak conjugated peptide from GST-tagged human Bcl-2-like protein 1 delta136T mutant expressed in Escherichia coli BL21 cells at 10 uM after 3 hrs by fluorescence polarization competition assay
[24] = Displacement of BODIPY-Bak conjugated peptide from GST-tagged human Bcl-2-like protein 1 A142Gdelta136T mutant expressed in Escherichia coli BL21 cells at 10 uM after 3 hrs by fluorescence polarization competition assay
[25] = target: T5, Induced myeloid leukemia cell differentiation protein Mcl-1 homolog; test: Binding affinity for GST-tagged mouse MCL1 expressed in Escherichia coli BL21 cells
[26] = target: T6, Bcl-2-related protein A1 (Homo sapiens, UniProt Q16548); test: Binding affinity for GST-tagged human BCL2A1 expressed in Escherichia coli BL21 cells
T6 sequence (Q16548 whole entry): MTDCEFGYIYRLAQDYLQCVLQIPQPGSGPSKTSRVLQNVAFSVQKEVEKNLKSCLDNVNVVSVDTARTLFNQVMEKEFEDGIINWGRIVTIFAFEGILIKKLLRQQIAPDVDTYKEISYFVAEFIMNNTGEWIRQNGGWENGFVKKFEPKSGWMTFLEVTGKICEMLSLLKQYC

T1 sequence (Q07817 whole entry): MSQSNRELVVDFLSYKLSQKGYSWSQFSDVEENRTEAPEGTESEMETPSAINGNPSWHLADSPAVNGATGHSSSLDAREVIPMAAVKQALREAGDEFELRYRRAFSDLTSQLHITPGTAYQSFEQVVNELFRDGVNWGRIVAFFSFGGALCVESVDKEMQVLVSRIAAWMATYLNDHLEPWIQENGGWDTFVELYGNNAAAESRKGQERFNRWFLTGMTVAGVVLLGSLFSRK
T2 sequence (Q07817 whole entry L130V): as the sequence (Q07817 whole entry) above, with L130V counted along it
T3 sequence (Q07817 whole entry L130G): as the sequence (Q07817 whole entry) above, with L130G counted along it
T5 sequence (P97287 whole entry): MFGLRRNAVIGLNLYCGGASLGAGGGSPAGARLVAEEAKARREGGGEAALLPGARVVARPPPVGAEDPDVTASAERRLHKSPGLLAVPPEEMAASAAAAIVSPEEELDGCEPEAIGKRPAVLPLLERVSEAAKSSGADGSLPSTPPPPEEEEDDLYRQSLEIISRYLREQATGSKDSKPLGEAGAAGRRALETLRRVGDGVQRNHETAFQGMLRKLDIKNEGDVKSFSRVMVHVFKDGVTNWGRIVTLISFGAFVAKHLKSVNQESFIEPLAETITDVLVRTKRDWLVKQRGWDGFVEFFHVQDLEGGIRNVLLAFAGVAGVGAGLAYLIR
Bcl-2-like protein 1 (Homo sapiens, UniProt Q07817, E129H), sequence (Q07817 whole entry E129H): as the sequence (Q07817 whole entry) above, with E129H counted along it
Bcl-2-like protein 1 (Homo sapiens, UniProt Q07817, Y195F), sequence (Q07817 whole entry Y195F): as the sequence (Q07817 whole entry) above, with Y195F counted along it
Bcl-2-like protein 1 (Homo sapiens, UniProt Q07817, G196A), sequence (Q07817 whole entry G196A): as the sequence (Q07817 whole entry) above, with G196A counted along it
Bcl-2-like protein 1 (Homo sapiens, UniProt Q07817, E96G), sequence (Q07817 whole entry E96G): as the sequence (Q07817 whole entry) above, with E96G counted along it
Bcl-2-like protein 1 (Homo sapiens, UniProt Q07817, Y101H), sequence (Q07817 whole entry Y101H): as the sequence (Q07817 whole entry) above, with Y101H counted along it
Bcl-2-like protein 1 (Homo sapiens, UniProt Q07817, R100E), sequence (Q07817 whole entry R100E): as the sequence (Q07817 whole entry) above, with R100E counted along it
Bcl-2-like protein 1 (Homo sapiens, UniProt Q07817, V141A), sequence (Q07817 whole entry V141A): as the sequence (Q07817 whole entry) above, with V141A counted along it
Bcl-2-like protein 1 (Homo sapiens, UniProt Q07817, A142G), sequence (Q07817 whole entry A142G): as the sequence (Q07817 whole entry) above, with A142G counted along it
Bcl-2-like protein 1 (Homo sapiens, UniProt Q07817, L130A), sequence (Q07817 whole entry L130A): as the sequence (Q07817 whole entry) above, with L130A counted along it
Bcl-2-like protein 1 (Homo sapiens, UniProt Q07817, A93V), sequence (Q07817 whole entry A93V): as the sequence (Q07817 whole entry) above, with A93V counted along it
Bcl-2-like protein 1 (Homo sapiens, UniProt Q07817, A142T), sequence (Q07817 whole entry A142T): as the sequence (Q07817 whole entry) above, with A142T counted along it
Bcl-2-like protein 1 (Homo sapiens, UniProt Q07817, F97V), sequence (Q07817 whole entry F97V): as the sequence (Q07817 whole entry) above, with F97V counted along it

Row | Compound | pKi [1] | pKi [2] | pKi [3] | pKi [4] | pKi [5] | pKi [6] | pKi [7] | pKi [8] | pKi [9] | pKi [10] | pKi [11] | pKi [12] | pKi [13] | pKi [14] | pKi [15] | pKi [16] | pKi [17] | pKi [18] | pKi [19] | pKi [20] | further results
1 | CC[C@H](C)[C@H](NC(=O)[C@H](CCC(=O)O)NC(=O)[C@H](CCCNC(=N)N)NC(=O)[C@H](C)NC(=O)[C@H](Cc1c[nH]c2ccccc12)NC(=O)[C@H](CCC(N)=O)NC(=O)[C@H](CCC(=O)O)NC(=O)[C@@H](N)CCC(=O)O)C(=O)NCC(=O)N[C@@H](C)C(=O)N[C@@H](CCC(N)=O)C(=O)N[C@@H](CC(C)C)C(=O)N[C@@H](CCCNC(=N)N)C(=O)N[C@@H](CCCNC(=N)N)C(=O)N[C@@H](CCSC)C(=O)N[C@@H](C)C(=O)N[C@@H](CC(=O)O)C(=O)N[C@@H](CC(=O)O)C(=O)N[C@@H](CC(C)C)C(=O)N[C@@H](CC(N)=O)C(=O)N[C@@H](C)C(=O)N[C@@H](CCC(N)=O)C(=O)N[C@@H](Cc1ccc(O)cc1)C(=O)N[C@@H](CCC(=O)O)C(=O)N[C@@H](CCCNC(=N)N)C(=O)N[C@@H](CCCNC(=N)N)C(=O)O | 6.92 | 6.74 | 7.00 | 8.06 | 8.05 | < 5.00 | 6.42 | 8.01 | < 5.00 | 6.89 | 8.85 | 7.54 | 6.28 | 6.77 | 7.59 | 7.05 | 7.12 | – | – | – | –
2 | CC(C)[C@@H]1CN(Cc2ccccc2C(F)(F)F)CCN1c1ccc(C(=O)NS(=O)(=O)c2ccc(N[C@H](CCN(C)C)CSc3ccccc3)c([N+](=O)[O-])c2)cc1 | – | – | – | – | – | – | – | – | – | – | – | – | – | – | – | – | – | 7.68 | 8.59 | 7.38 | pKi [21]: 5.70; pKi [22]: 6.55
3 | C[C@H]1CN(c2ccc(C(=O)NS(=O)(=O)c3ccc(N[C@H](CCN(C)C)CSc4ccccc4)c([N+](=O)[O-])c3)cc2)CCN1Cc1ccccc1C(F)(F)F | – | – | – | – | – | – | – | – | – | – | – | – | – | – | – | – | – | 7.20 | > 9.00 | > 9.00 | pKi [21]: 5.70; pKi [22]: 7.00
4 | CN(C)CC[C@H](CSc1ccccc1)Nc1ccc(S(=O)(=O)NC(=O)c2ccc(N3CCN(Cc4ccccc4-c4ccc(Cl)cc4)CC3)cc2)cc1[N+](=O)[O-] [ABT 737] | – | – | – | – | – | – | – | – | – | – | – | – | – | – | – | – | – | – | – | – | pKi [23]: 7.22; pKi [24]: 8.00; pKd [25]: < 6.00; pKd [26]: < 6.00
5 | H-PAELEVECATQLRRFGDKLNFRQKLL-OH | < 5.00 | < 5.00 | < 5.00 | < 5.00 | < 5.00 | < 5.00 | < 5.00 | < 5.00 | < 5.00 | < 5.00 | < 5.00 | < 5.00 | < 5.00 | < 5.00 | < 5.00 | < 5.00 | < 5.00 | – | – | – | –
